Measured values published in US20240000863A1, “Skin Probiotics” (The Regents of the University of California, priority 2021, published 2024).

Assays:
[1] = target: T1, KLK5 (Homo sapiens, UniProt Q9Y337); assay: KLK5 inhibition assay (Acetyl-YASR-paranitroanilide, absorbance 405 nm); type: biochemical; conditions: over 30 minutes; leupeptin at 100 uM
T1 sequence (Q9Y337 23-293): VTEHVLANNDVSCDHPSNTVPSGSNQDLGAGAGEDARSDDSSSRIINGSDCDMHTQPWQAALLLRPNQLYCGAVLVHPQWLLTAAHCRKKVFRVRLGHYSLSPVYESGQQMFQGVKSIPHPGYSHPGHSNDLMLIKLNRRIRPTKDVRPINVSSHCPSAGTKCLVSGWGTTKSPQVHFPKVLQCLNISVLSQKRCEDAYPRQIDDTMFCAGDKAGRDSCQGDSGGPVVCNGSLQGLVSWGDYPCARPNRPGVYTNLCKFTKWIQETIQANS
Description: The KLK5 inhibition assay is the foremost method to determine inhibition of KLK5. In the assay, KLK5 is incubated with the substrate Acetyl-YASR-paranitroanilide Uninhibited, KLK5 cleaves the substrate Acetyl-YASR at the arginine position […], releasing para-nitroanilide, a chromophore with absorbance 405 nm, resulting in increased absorption at that wavelength. When inhibited, the substrate Acetyl-YASR-paranitroanilide remains intact, and there is no increase in absorption at 405 nm. As a positive control, we used the absence of any inhibitor and the addition of purified Red Fluorescent Protein (RFP). As negative controls, we used a substrate only addition (no KLK5 is added) as well as a 100 uM addition of purified leupeptin, which is known to inhibit KLK5 at high concentrations.

[2] = target: T2, KLK5 protein (kallikrein 5) (UniProt Q9Y337 67-293, limits assumed); assay: cell-based or functional assay
T2 sequence (looked up): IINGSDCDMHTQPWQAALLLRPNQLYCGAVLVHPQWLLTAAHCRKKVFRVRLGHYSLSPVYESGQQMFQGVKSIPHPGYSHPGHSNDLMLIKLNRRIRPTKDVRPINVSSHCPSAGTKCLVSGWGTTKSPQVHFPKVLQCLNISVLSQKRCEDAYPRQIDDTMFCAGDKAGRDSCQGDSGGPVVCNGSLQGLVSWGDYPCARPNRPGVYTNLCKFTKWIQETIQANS

CC(=O)N[C@@H](CC(C)C)C(=O)N[C@@H](CC(C)C)C(=O)N[C@H](C=O)CCCNC(=N)N [leupeptin]
change of absorbance at 405 nm [1]: very little increasing absorbance

B1: LEKTI-D6 protein (lymphoepithelial Kazal-Type-related protease inhibitor, domain 6), secreted by C. glutamicum and purified (other)
chain: MESGKATSYAELCNEYRKLVRNGKLACTRENDPIQGPDGKVHGNTCSMCEVFFQAEEEEKKKKEGESRNKR
KLK5 inhibition assay (cleavage of Acetyl-YASR-paranitroanilide, absorbance at 405 nm), IC50 [2]: 89 nM
